The values below come from PubChem BioAssay (NCI).

Test in all cases: NCI-60 cell line screen, 48 h
In assay [1] the test system is SF-295 CNS.
The subject of assay [2] is OVCAR-5 ovarian.
Assay [3] concerns NCI-H23 lung.
Assay [4] deals with UACC-257 melanoma.
Assay [5] deals with UACC-62 melanoma.
Assay [6] has as its system SF-268 CNS.
Assay [7] concerns NCI-H522 lung.
Assay [8] has as its system KM12 colon.
Assay [9] concerns EKVX NSCLC.
The test system of assay [10] is SK-MEL-28 melanoma.

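Interpolation was linear, between the two tested concentrations surrounding the appropriate level; five concentrations were tested over 48 hours in 96-well plates. At the GI50, growth is halved. TGI is the concentration that stops growth completely.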

With `C#CCCCCC#CC1CCCC1C1=CC(=O)c2ccccc21` (configuration not stated), the TGI was determined as 16.8 µM in assay [1]; 23.7 µM in assay [2]; 24.5 µM in assay [3]; 25.2 µM in assay [4]; 6.44 µM in assay [5]; 11.8 µM in assay [6]. In addition, the TGI in assay [7] turned out to be 22 µM; in assay [8], 19.6 µM; in [9], 28 µM; in assay [10] it was 18.5 µM.

Consider `CN(C)CCNc1ccc2nnn3c4ccc(Cl)cc4c(=O)c1c23`, for which the TGI amounted to 15.7 µM in assay [1]; 13.3 µM in [2]; 18.7 µM in [3]; 17.5 µM in assay [4]; 18.6 µM in [5]; 23.1 µM in assay [6]. Moreover, the TGI in assay [7] was determined as 17.5 µM; in assay [8], 20.8 µM; in assay [9], 22.2 µM; in assay [10], 18 µM.

On to `N=C(N)SC1c2ccccc2-c2cc([N+](=O)[O-])ccc21` (configuration not stated), for which the TGI in assay [1] came to 15.7 µM; in assay [2], 26.7 µM; in [3], 18.3 µM; in assay [4] it was 20.9 µM; in [5], 10.1 µM; in [6] it was 14.3 µM. The TGI in [7] was determined as 6.47 µM; in assay [8], 11.4 µM; in assay [9] it was 29 µM; in assay [10], 17.5 µM.

`O=[N+]([O-])/C=C/c1cccc(F)c1`: the TGI in assay [1] was found to be 30.2 µM; in assay [3] it was 17.9 µM; in [4], 15.8 µM; in assay [5], 22.5 µM; in [6], 29.4 µM; in assay [7] it was 26.9 µM. Further, the TGI in assay [8] was 10.3 µM; in [9] it was 7.45 µM; in assay [10] it was 5.87 µM.

For `CC1(C)[C@@H]2C[C@H]1C(Cc1ccccc1C[C@H]1c3cc(-c4ccccn4)ncc3[C@H]3C[C@@H]1C3(C)C)c1cc(-c3ccccn3)ncc12` (some centres not stated), the TGI was over 55.1 µM in assay [1]; over 100 µM in [2]; over 100 µM in [3]; 4.15 µM in assay [5]; over 36.2 µM in assay [6]; over 22 µM in assay [7]. The TGI in assay [8] was 13.4 µM; in [9], over 100 µM; in assay [10], over 100 µM.

On to `NC(Cc1ccc2oc3cc(=O)c4ccccc4c-3nc2c1)C(=O)O` (configuration not stated), for which the TGI in assay [1] is 55.5 µM; in [2], over 87.6 µM; in [3] it was 16.3 µM; in assay [4], 39.3 µM; in [5], 22.5 µM; in [6], over 100 µM. Also, the TGI in assay [7] was 77.7 µM; in assay [8], over 100 µM; in [9] it was over 100 µM; in [10] it was 59 µM.

`Cc1ccc(NCCN(C)CC(C)O)c2c(=O)c3ccc(Cl)cc3sc12` (configuration not stated): the GI50 was 3 µM in [2]; 1.96 µM in [4]; 1.85 µM in assay [5]; 6.47 µM in assay [6]; 1.75 µM in assay [10]. The TGI in assay [2] is over 100 µM; in assay [4], 3.57 µM; in assay [5] it was 3.48 µM; in assay [6] it was over 100 µM; in [10] it was 3.31 µM.

With `CC(=O)O[C@H]1CC[C@]2(C)[C@H]3C(=O)C=C4[C@@H]5C[C@](C)(C(=O)N6CCCNCC6)CC[C@]5(C)CC[C@@]4(C)[C@]3(C)CC[C@H]2C1(C)C`, the GI50 was 1.76 µM in assay [1]; 1.6 µM in assay [2]; 1.73 µM in assay [3]; 1.98 µM in [4]; 1.69 µM in [5]; 1.8 µM in assay [6]. The GI50 in [7] was 1.68 µM; in [8], 1.71 µM; in [9] it was 1.67 µM; in assay [10], 1.85 µM. Moreover, the TGI in [1] amounted to 3.2 µM; in assay [2] it was 2.96 µM; in assay [3] it was 3.37 µM; in [4], 4.26 µM; in assay [5] it was 3.13 µM; in [6], 3.58 µM. Moreover, the TGI in assay [7] worked out at 3.42 µM; in assay [8], 3.21 µM; in [9], 3.15 µM; in assay [10], 3.29 µM.

With `C/C=C1/CN2CC[C@@H]3c4ccccc4N4[C@H](C(=O)OC)[C@H]1C[C@H]2[C@]34/C=C/C1=COC[C@@H]2[C@H]1C[C@H]1c3c(c4ccccc4n3C)C[C@@H]2N1C`, the TGI is 8.18 µM in [1]; 7.99 µM in assay [2]; 8.43 µM in assay [3]; 8.51 µM in assay [4]; 9.29 µM in assay [5]; 7.16 µM in assay [6]. Moreover, the TGI in [9] was 6.17 µM; in assay [10] it was 8.88 µM.

`CCCCCCc1ccc(O)cc1O`: the TGI is over 100 µM in assay [1]; over 100 µM in assay [2]; over 100 µM in assay [3]; over 85.1 µM in [4]; over 79.1 µM in [5]; over 100 µM in [6]. The TGI in assay [7], in [8], in assay [9] and in assay [10] was over 100 µM in each case.

Regarding `NC(=O)c1nnc2cc(F)c(F)cc2c1N`, the TGI in assay [1] was 64.5 µM; in assay [2], over 100 µM; in [3] it was over 100 µM; in [4], over 100 µM; in assay [5], over 100 µM; in assay [6], 49.9 µM. Besides, the TGI in assay [7] was 56.8 µM; in assay [8] it was over 100 µM; in assay [9], over 100 µM.

Turning to `CN[C@@H]1[C@H](O)[C@H](NC)[C@H]2O[C@@]3(O)C(=O)C[C@@H](C)O[C@H]3O[C@@H]2[C@H]1O`, the TGI in [1], in assay [2], in [3], in [4], in assay [5] and in [6] was over 100 µM throughout. Also, the TGI in [7], in assay [8], in assay [9] and in assay [10] was over 100 µM in each case.

Consider `COc1cc2c(cc1O)CCN[C@@]21CS[C@H]2c3c(OC(C)=O)c(C)c4c(c3C(COC1=O)N1C2C2c3c(cc(C)c(OC)c3O)CC([C@@H]1O)N2C)OCO4` (some centres not stated), for which the GI50 in [1] is 0.000788 µM; in assay [7], 0.000953 µM; in assay [8], 0.00337 µM; in assay [10], 0.00242 µM. The TGI in assay [1] is 0.0277 µM; in assay [7] it was 0.00273 µM; in assay [8] it was 0.0161 µM; in assay [10], 0.00682 µM.

Take `C=C(/C=C/C=C(/CCC=C(C)C)COC(C)=O)[C@@H]1CC[C@]2([C@H](CCCO)/C(=C(/C)C=O)CC[C@]2(C)O)[C@@H]1O`: the TGI turned out to be 19.6 µM in assay [1]; 53.7 µM in assay [2]; 35.5 µM in [3]; 32.6 µM in assay [4]; 41.9 µM in assay [6]; 32.6 µM in assay [7]. For the same compound, the TGI in assay [8] is 32.4 µM; in [9], 42.2 µM; in assay [10] it was 26.9 µM.
